pEC50: −log10 of the molar value.
Columns and labels:
[1] = target: T1, adenosine A1 receptor (Rattus norvegicus, UniProt P25099); experiment: Peak bradycardia after bolus intravenous injection in conscious rats; assay type: in vivo; design: from tissue; host or cells: whole animal (conscious Sprague-Dawley rats); conditions: rat, bolus intravenous injections, read-out: ED50
T1 sequence (P25099 1-326): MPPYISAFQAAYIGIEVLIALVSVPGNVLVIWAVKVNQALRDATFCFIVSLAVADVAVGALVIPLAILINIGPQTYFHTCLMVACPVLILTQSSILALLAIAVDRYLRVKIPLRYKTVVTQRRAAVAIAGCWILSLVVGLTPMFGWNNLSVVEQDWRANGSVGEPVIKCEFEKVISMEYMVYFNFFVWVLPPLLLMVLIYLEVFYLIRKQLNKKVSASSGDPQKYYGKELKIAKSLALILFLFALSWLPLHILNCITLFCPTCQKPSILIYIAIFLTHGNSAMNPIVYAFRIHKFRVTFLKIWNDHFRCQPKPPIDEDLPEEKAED
Text: (§1) Concentration dose-effect curve data were fitted to a sigmoid curve using Graphpad PRIZM™ software to obtain the concentration or dose of test compound that produces 50% of the maximal obtainable response, in vitro EC50 or in vivo ED50 values, for activation of the adenosine A1 receptor. Responses measured to each dose were the plateau negative inotropic response to cumulative additions of test compound in the isolated left atria and the peak bradycardia in response to bolus intravenous injections of test compound in conscious rats. Oral bioavailability was estimated from pharmacodynamic responses using the expression: (Response AUCoral/Response AUCiv)(Doseiv/Doseoral), where Response AUC is the area under the curve for test compound-induced bradycardia over time.
Male Sprague-Dawley rats were anesthetized with sodium pentobarbital 50 mg/kg i.p., and indwelling catheters were surgically implanted in the carotid artery and jugular vein two days prior to each experiment. During all subsequent experiments, rats were conscious and unrestrained. The carotid artery cannula was attached to a pressure transducer and blood pressure was recorded continuously throughout each experiment using a Grass polygraph. Heart rate was derived from the blood pressure signal using a Grass tachygraph. The measured parameters were allowed from 30 to 90 minutes to stabilize before the administration of test compound.
Test compounds were administered either by oral gavage using a curved, bulbed oral dosing cannula, or by intravenous administration via the jugular vein indwelling catheter. Rats dosed orally were fasted overnight before dosing, with water available ad libitum. Because the heart rate responses following intravenous administration of test compound rapidly returned to baseline, more than one dose of test compound could be administered to each rat. However, the responses to oral administration of test compounds were of a prolonged duration and therefore only a single dose could be administered to each rat.

[2] = test system: guinea pig isolated spontaneously beating heart; experiment: Guinea pig isolated spontaneously beating heart (Langendorff): heart rate and AV interval
Experimental: Guinea pig isolated hearts were prepared according to the method of Langendorff in which the coronary vasculature was perfused in a retrograde fashion at constant pressure via the aorta. Compound A was administered to the spontaneously beating hearts by infusion into the perfusion line supplying buffer to the coronary vasculature. The concentration of Compound A was adjusted by changes in the infusion rate and/or changes in the concentration of infusion solutions. The concentration of Compound A present in the perfusate was calculated by dividing the rate of Compound A infused by the coronary flow rate. Spontaneously beating heart rate and AV interval were recorded.

[3] = test system: adenosine A1 receptor; experiment: Rat isolated Langendorff heart paced at 360 bpm: AV conduction (S-V interval) and coronary blood flow; conditions: at 6.8 nM and 8.3 nM, rat isolated heart
Experimental: Rat isolated hearts were prepared according to the method of Langendorff in which the coronary vasculature was perfused in a retrograde fashion at constant pressure via the aorta. Coronary blood flow was determined by measuring the volume of fluid leaving the heart. Heart rate was maintained at 360 beats per minute by electrical pacing of the right atrium. Atrioventricular (AV) conduction was determined as the time from the atrial stimulus to the beginning of ventricular depolarization (S-V interval).

[4] = target: T1, adenosine A1 receptor; experiment: Negative inotropic response in electrically stimulated rat isolated left atria (isoproterenol-stimulated); design: from tissue; host or cells: whole animal (conscious Sprague-Dawley rats); conditions: plateau negative inotropic response, 1 Hz, isoproterenol 10^−8 M
Text: as §1
Male Sprague-Dawley rats weighing 200-350 grams were sacrificed and the hearts rapidly removed and placed in a warmed Krebs-Henseleit buffer solution. The left atria were dissected free from the hearts and suspended in 30 mL jacketed isolated organ baths filled with Krebs-Henseleit buffer, oxygenated with 95% O2/5% CO2 and maintained at 37° C. Tissues were connected to a force displacement transducer under a resting tension of 1 gram. Atria were stimulated electrically at 1 Hz, 1 msec duration and supramaximal voltage to produce regular contractions of tissue.
Adenosine A1 agonists were added to the baths at increasing cumulative concentrations until a maximal decrease in the force of contraction was obtained. Because adenosine A1 agonists have only a small direct negative inotropic action in rat atria, it was necessary to stimulate β-adrenergic receptors to produce positive inotropy in order to maximize the negative intropic response and thereby facilitate measurement. Under these conditions, adenosine A1 agonists acting at A1 receptors indirectly reduce the β-adrenergic mediated positive inotropy. Accordingly, the β-adrenergic agonist isoproterenol (10^−8 M) was added to the organ baths approximately 15 minutes before the addition of the adenosine A1 agonist.

[5] = test system: guinea pig isolated heart; experiment: Guinea pig isolated heart paced at 300-360 bpm: AV conduction interval versus coronary perfusate flow
Experimental: Guinea pig isolated hearts were prepared according to the methods described in Example 5. In the first portion of the experiment designed to determine the effect of heart rate on the negative dromotropic activity of Compound A, hearts were allowed to beat spontaneously or electrically paced either at 200 beats per minute (approximately 20% above the spontaneous rate) or at 300-360 beats per minute (approximately 80% above the spontaneous rate). Atrioventricular (AV) conduction interval (AV interval) was determined as the time from the atrial stimulus to the beginning of ventricular depolarization. The AV interval measurements were performed at each pacing rate with increased concentrations of Compound A as described in Example 5. Upon electrical pacing at 200 beats per minute, Compound A at a mean concentration of 3.9 nM produced a mean maximal 58% increase in AV interval, and heart block at a mean minimal concentration of 5.1 nM. […] The results are summarized in the table below, with data from spontaneously beating hearts included for comparative purposes:
In order to determine the differential potencies of Compound A for negative […] activity versus coronary vasodilation in paced hearts, a different set of experiments was conducted in which individual hearts were used to collect measurements for each action. Experimental conditions as described in Example 6 were used, with guinea pig isolated hearts being paced at 300-360 beats per minute. AV conduction interval was determined as described in Example 6. Coronary perfusate flow data was determined by measuring the volume of fluid leaving the heart. AV conduction interval data and coronary perfusate flow data were collected in the presence of increasing concentrations of Compound A. The results are shown in FIG. 3, with dose-related increases for both AV conduction interval and coronary perfusate flow. The differential for these effects is readily apparent. The mean concentration of Compound A that produced a maximal increase in AV conduction time was 0.76 nM.

[6] = heart rate spontaneous (appro. 170 bpm)
[7] = spontaneously beating guinea pig heart
[8] = paced at 300-360 beats per minute

CCNC(=O)[C@H]1O[C@@H](n2cnc3c(NC4CCCC4)ncnc32)[C@H](O)[C@@H]1O [Compound A, ethyl N^6-cyclopentyladenosine-5′-uronamide]
ED50 [1]: 0.0083 µmol/kg | pEC50 ([2]; Cavia porcellus, spontaneously beating guinea pig heart, read-out: EC50 for decrease in heart rate): 8.49 | Mean Concentration of Compound A Required to Produce Maximal AV Interval [2, 6]: 11.7 nM | Mean Minimal Concentration of Compound A Required to Produce Heart Block [2, 6]: 13 nM | maximal decrease in heart rate [2, 7]: 58% | maximal increase in AV interval over basal values [2, 7]: 34% | effect on coronary blood flow [3]: no effect | pEC50 [4]: 7.81 | pEC50 ([5]; Cavia porcellus, paced at 300-360 beats per minute, read-out: EC50 for increase in coronary perfusate flow): 7.49 | mean coronary perfusate flow rate reached ([5]; increase from a mean flow rate of 8.5 mL/min, paced at 300-360 bpm): 14.2 mL/min | mean concentration producing heart block [5, 8]: 1.09 nM | mean concentration that produced a maximal increase in AV conduction time [5, 8]: 0.76 nM | potency at slowing AV conduction versus increasing coronary perfusate flow [5, 8]: greater than 40 fold | mean maximal increase in AV interval ([5]; paced at 300-360 beats per minute, at 0.76 nM): 23%
